Test results published in patent US11926616B2, “Aminopyrazine diol compounds as PI3K-γ inhibitors” (Incyte Corporation, priority 2018, dated 2024).
Where two headings read alike, the source gives them in different places.

Experiments:
[1] = biological target: PI3Kδ (p110δ/p85α) Recombinant Human Protein (Homo sapiens (Human), UniProt O00329); assay: PI3Kδ Scintillation Proximity Assay; format: biochemical; conditions: 20 μM PIP2, 2 μM ATP, 3.4 nM PI3Kδ, 120 min, room temperature
From the text: Example C. PI3Kδ Scintillation Proximity Assay Materials: [γ-^33P]ATP (10 mCi/mL) and Wheat Germ Agglutinin (WGA) YSi SPA Scintillation Beads was purchased from Perkin Elmer (Waltham, MA). Lipid kinase substrate, D-myo-Phosphatidylinositol 4,5-bisphosphate (PtdIns(4,5)P2)D (+)-sn-1,2-di-O-octanoylglyceryl, 3-O-phospho linked (PIP2), CAS 204858-53-7, was purchased from Echelon Biosciences (Salt Lake City, UT). PI3Kδ (p110δ/p85α) Recombinant Human Protein was purchased from Eurofins (St Charles, MO). ATP, MgCl2, DTT, EDTA, MOPS and CHAPS were purchased from Sigma Aldrich (St. Louis, MO). The kinase reaction was conducted in polystyrene 384-well Greiner Bio-one white plate from Thermo Fisher Scientific in a final volume of 25 μL. Inhibitors were first diluted serially in DMSO and added to the plate wells before the addition of other reaction components. The final concentration of DMSO in the assay was 2%. The PI3Kδ assay was carried out at room temperature in 20 mM MOPS, pH 6.7, 10 mM MgCl2, 5 mM DTT and CHAPS 0.03%. Reactions were initiated by the addition of ATP, the final reaction mixture consisted of 20 μM PIP2, 2 μM ATP, […] [γ-^33P] ATP, 3.4 nM PI3Kδ. Reactions were incubated for 120 min and terminated by the addition of 40 μL SPA beads suspended in quench buffer: 163 mM potassium phosphate pH 7.8, 20% glycerol, 25 mM EDTA. The final concentration of SPA beads is 1.0 mg/mL. After the plate sealing, plates were shaken overnight at room temperature and centrifuged at 1500 rpm for 10 min, the radioactivity of the product was determined by scintillation counting on Topcount (PerkinElmer). IC50 determination was performed by fitting the curve of percent of the solvent control activity versus the log of the inhibitor concentration using the GraphPad Prism 6.0 software.

[2] = test system: Phosphorylated Ribosomal Protein S6 (RPS6) in THP-1 cells; assay: THP-1 RPS6 ELISA Assay; format: cell-based, Human; conditions: Homo sapiens
Description: Example A. THP-1 RPS6 ELISA Assay
To measure the Phosphorylated Ribosomal Protein S6 (RPS6) in cell lysates, THP-1 cells (Human Acute Monocytic Leukemia) are purchased from ATCC (Manassas, VA) and maintained in RPMI with 10% FBS (Gibco/Life Technologies, Carlsbad, CA). For the assay, THP-1 cells are serum starved overnight in RPMI, then plated in RPMI (2×10^5 cells/well in 90 μL) into 96-well flat-bottom tissue culture treated plates (Corning, Corning, NY), in the presence or absence of a concentration range of test compounds. Covered plates are incubated for 2 hours at 37° C., 5% CO2 then treated with or without 10 nM MCP-1(MYBioSource, San Diego, CA) for 15 minutes at 37° C., 5% CO2. Plates are centrifuged at 1600 RPM and supernatants are removed. Cells are lysed in Lysis Buffer (Cell Signaling, Danvers, MA) with Protease Inhibitor (Calbiochem/EMD, Germany), PMSF (Sigma, St Louis MO), HALTS (Thermo Fisher, Rockford, IL) for 30 min on wet ice. Cell lysates are frozen at −80° C. before testing. The lysates are tested in the Human/Mouse/Rat Phospho-RPS6 ELISA (R&D Systems, Inc. Minn, MN). The plate is measured using a microplate reader (SpectraMax M5—Molecular Devices, LLC Sunnyvale, CA) set to 450 nm with a wavelength correction of 540. IC50 determination is performed by fitting the curve of inhibitor percent inhibition versus the log of the inhibitor concentration using the GraphPad Prism 5.0 software.

[3] = biological target: PI3Kγ (p110γ) Recombinant Human Protein (Homo sapiens (Human), UniProt P48736); assay: PI3K-γ Scintillation Proximity Assay; format: biochemical; conditions: 20 μM PIP2, 2 μM ATP, 13 nM PI3Kγ, 120 min, room temperature
Chain of PI3Kγ (p110γ) Recombinant Human Protein (P48736 whole entry): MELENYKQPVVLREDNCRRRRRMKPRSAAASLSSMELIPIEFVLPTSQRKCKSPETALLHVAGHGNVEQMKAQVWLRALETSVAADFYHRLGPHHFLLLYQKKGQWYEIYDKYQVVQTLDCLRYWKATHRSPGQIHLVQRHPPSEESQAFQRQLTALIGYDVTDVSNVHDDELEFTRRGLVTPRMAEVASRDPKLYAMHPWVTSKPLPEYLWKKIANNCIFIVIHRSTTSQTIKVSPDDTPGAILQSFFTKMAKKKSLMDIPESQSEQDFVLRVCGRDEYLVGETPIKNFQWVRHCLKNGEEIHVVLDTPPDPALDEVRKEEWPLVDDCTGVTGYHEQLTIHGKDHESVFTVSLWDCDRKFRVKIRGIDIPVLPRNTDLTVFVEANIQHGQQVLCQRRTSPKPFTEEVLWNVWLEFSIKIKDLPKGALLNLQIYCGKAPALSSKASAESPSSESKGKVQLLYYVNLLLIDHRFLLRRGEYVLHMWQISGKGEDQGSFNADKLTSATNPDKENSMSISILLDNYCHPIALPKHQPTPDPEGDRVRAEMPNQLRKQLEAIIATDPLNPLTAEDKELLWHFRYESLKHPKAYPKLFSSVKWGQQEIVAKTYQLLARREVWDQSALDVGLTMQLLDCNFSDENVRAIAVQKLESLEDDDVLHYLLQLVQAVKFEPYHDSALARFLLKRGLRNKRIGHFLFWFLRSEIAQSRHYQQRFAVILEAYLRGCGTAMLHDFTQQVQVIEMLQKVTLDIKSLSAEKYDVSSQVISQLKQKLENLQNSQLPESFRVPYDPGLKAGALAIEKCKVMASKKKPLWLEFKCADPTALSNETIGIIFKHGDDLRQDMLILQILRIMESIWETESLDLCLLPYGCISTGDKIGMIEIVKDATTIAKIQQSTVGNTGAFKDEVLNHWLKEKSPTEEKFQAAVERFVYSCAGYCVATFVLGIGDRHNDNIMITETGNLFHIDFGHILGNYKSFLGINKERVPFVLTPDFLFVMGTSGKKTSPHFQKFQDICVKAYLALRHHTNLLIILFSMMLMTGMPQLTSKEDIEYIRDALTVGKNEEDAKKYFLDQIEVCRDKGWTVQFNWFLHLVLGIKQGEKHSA
From the text: Example B. PI3K-γ Scintillation Proximity Assay Materials: [γ-^33P]ATP (10 mCi/mL) and Wheat Germ Agglutinin (WGA) YSi SPA Scintillation Beads was purchased from Perkin Elmer (Waltham, MA). Lipid kinase substrate, D-myo-Phosphatidylinositol 4,5-bisphosphate (PtdIns(4,5)P2)D (+)-sn-1,2-di-O-octanoylglyceryl, 3-O-phospho linked (PIP2), CAS 204858-53-7, was purchased from Echelon Biosciences (Salt Lake City, UT). PI3Kγ (p110γ) Recombinant Human Protein was purchased from Life technology (Grand Island, NY). ATP, MgCl2, DTT, EDTA, MOPS and CHAPS were purchased from Sigma Aldrich (St. Louis, MO). The kinase reaction was conducted in polystyrene 384-well Greiner Bio-one white plate from Thermo Fisher Scientific in a final volume of 25 μL. Inhibitors were first diluted serially in DMSO and added to the plate wells before the addition of other reaction components. The final concentration of DMSO in the assay was 2%. The PI3Kγ assay was carried out at room temperature in 20 mM MOPS, pH 6.7, 10 mM MgCl2, 5 mM DTT and CHAPS 0.03%. Reactions were initiated by the addition of ATP, the final reaction mixture consisted of 20 μM PIP2, 2 μM ATP, 0.5 μCi [γ-^33P] ATP, 13 nM PI3Kγ. Reactions were incubated for 120 min and terminated by the addition of 40 μL SPA beads suspended in quench buffer: 163 mM potassium phosphate pH 7.8, 20% glycerol, 25 mM EDTA. The final concentration of SPA beads is 1.0 mg/mL. After the plate sealing, plates were shaken overnight at room temperature and centrifuged at 1500 rpm for 10 min, the radioactivity of the product was determined by scintillation counting on Topcount (Perkin-Elmer). IC50 determination was performed by fitting the curve of percent of the solvent control activity versus the log of the inhibitor concentration using the GraphPad Prism 6.0 software.

[4] = THP-1 cells, serum starved, 2 hours compound, 10 nM MCP-1 for 15 minutes, Phospho-RPS6 ELISA, read-out: PI3Kγ_THP1_RPS6_ELISA IC50

Chain of PI3Kδ (p110δ/p85α) Recombinant Human Protein (O00329 whole entry): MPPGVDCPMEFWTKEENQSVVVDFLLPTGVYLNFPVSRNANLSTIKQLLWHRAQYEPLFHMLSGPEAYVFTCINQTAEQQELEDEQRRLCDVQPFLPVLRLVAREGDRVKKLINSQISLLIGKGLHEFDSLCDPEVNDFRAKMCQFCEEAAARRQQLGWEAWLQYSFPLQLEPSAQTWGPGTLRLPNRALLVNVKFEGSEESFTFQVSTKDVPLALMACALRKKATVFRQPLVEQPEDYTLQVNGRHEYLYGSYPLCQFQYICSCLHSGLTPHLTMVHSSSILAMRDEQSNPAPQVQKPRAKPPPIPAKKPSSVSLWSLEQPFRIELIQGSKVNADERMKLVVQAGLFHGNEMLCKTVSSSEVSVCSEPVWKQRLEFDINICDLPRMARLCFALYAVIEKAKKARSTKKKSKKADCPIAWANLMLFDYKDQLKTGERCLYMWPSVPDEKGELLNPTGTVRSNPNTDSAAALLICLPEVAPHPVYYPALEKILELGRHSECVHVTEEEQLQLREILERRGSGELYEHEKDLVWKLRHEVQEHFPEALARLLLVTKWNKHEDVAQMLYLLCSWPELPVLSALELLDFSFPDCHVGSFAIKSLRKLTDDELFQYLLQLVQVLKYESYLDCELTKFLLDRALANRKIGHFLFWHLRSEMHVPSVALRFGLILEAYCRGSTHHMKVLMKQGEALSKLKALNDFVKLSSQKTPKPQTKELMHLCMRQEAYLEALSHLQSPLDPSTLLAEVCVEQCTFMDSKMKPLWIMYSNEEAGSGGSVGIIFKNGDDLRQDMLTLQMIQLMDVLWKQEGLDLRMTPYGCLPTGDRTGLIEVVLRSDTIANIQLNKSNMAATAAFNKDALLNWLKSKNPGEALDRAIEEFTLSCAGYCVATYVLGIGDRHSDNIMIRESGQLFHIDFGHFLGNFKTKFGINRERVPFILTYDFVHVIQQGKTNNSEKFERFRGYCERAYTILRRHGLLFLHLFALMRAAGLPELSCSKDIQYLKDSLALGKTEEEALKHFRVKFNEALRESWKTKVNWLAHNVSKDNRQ
Chain of PI3Kδ (p110δ/p85α) Recombinant Human Protein (P27986 whole entry partner): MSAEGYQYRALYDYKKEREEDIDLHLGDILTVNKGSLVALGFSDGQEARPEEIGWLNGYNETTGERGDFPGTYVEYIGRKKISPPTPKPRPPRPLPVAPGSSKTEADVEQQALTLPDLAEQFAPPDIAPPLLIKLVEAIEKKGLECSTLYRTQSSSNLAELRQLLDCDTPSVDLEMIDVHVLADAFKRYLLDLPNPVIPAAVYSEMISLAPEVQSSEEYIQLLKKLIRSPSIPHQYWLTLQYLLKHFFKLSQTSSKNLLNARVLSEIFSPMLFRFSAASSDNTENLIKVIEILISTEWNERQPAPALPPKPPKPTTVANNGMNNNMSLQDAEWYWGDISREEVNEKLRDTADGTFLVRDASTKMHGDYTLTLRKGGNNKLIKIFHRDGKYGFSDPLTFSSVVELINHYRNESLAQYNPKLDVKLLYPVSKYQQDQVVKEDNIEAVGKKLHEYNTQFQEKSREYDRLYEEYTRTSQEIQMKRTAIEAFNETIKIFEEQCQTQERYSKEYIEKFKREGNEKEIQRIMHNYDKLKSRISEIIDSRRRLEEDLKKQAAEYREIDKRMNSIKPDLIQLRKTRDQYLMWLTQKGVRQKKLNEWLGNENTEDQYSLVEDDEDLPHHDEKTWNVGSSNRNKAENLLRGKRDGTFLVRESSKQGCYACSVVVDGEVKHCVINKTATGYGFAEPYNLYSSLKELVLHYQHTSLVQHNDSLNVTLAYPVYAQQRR

IC50 [1] [nM] | IC50 [2, 4] [nM] | IC50 [3] [nM] | SMILES | IC50 ([2]; THP-1, read-out: PI3Kγ_THP1_RPS6_ELISA IC50 (nM)) [nM]
≤ 100 | < 100 | ≤ 100 | [2H]C([2H])([2H])n1nccc1-c1nc(-c2cc(C(O)(CO)C(F)(F)F)ccc2C)cnc1N (single isomer, unassigned) [Example 1a, 2-(3-(5-Amino-6-(1-(methyl-d3)-1H-pyrazol-5-yl)pyrazin-2-yl)-4-methylphenyl)-3,3,3-trifluoropropane-1,2-diol] | –
≤ 500 | – | ≤ 500 | [2H]C([2H])([2H])n1nccc1-c1nc(-c2cc(C(O)(CO)C(F)(F)F)ccc2C)cnc1N (single isomer, unassigned) [Example 1b, 2-(3-(5-Amino-6-(1-(methyl-d3)-1H-pyrazol-5-yl)pyrazin-2-yl)-4-methylphenyl)-3,3,3-trifluoropropane-1,2-diol] | –
≤ 100 | < 100 | ≤ 100 | Cc1ncc(-c2nc(-c3cc(C(O)(CO)C(F)(F)F)ccc3C)cnc2N)o1 (single isomer, unassigned) [Example 9, 2-(3-(5-Amino-6-(2-methyloxazol-5-yl)pyrazin-2-yl)-4-methylphenyl)-3,3,3-trifluoropropane-1,2-diol] | –
≤ 100 | < 100 | ≤ 100 | Cc1ccc(C(O)(CO)C(F)(F)F)cc1-c1cnc(N)c(-n2cccn2)n1 (single isomer, unassigned) [Example 12, 2-(3-(5-Amino-6-(1H-pyrazol-1-yl)pyrazin-2-yl)-4-methylphenyl)-3,3,3-trifluoropropane-1,2-diol] | –
≤ 100 | < 100 | ≤ 100 | [2H]C([2H])([2H])c1ccc(C(O)(CO)C(F)(F)F)cc1-c1cnc(N)c(-c2cnc(C)o2)n1 (single isomer, unassigned) [Example 16, 2-(3-(5-Amino-6-(2-methyloxazol-5-yl)pyrazin-2-yl)-4-(methyl-d3)phenyl)-3,3,3-trifluoropropane-1,2-diol] | –
≤ 100 | < 100 | ≤ 100 | [2H]C([2H])([2H])c1ccc(C(O)(CO)C(F)(F)F)cc1-c1cnc(N)c(C(=O)NC2CCOCC2)n1 (single isomer, unassigned) [Example 17, 3-Amino-6-(2-(methyl-d3)-5-(1,1,1-trifluoro-2,3-dihydroxypropan-2-yl)phenyl)-N-(tetrahydro-2H-pyran-4-yl)pyrazine-2-carboxamide] | –
≤ 500 | < 500 | ≤ 100 | [2H]C([2H])([2H])c1ccc(C(O)(C(C)O)C(F)(F)F)cc1-c1cnc(N)c(C(=O)NC2CCOCC2)n1 (single isomer, unassigned) [Example 19, 3-Amino-6-(2-(methyl-d3)-5-(1,1,1-trifluoro-2,3-dihydroxybutan-2-yl)phenyl)-N-(tetrahydro-2H-pyran-4-yl)pyrazine-2-carboxamide] | –
≤ 500 | < 500 | ≤ 100 | Cc1ccc(C(O)(CO)C(F)(F)F)cc1-c1cnc(N)c(C2CC(C(=O)N3CC(O)C3)C2)n1 (single isomer, unassigned) [Example 24, (3-(3-Amino-6-(2-methyl-5-(1,1,1-trifluoro-2,3-dihydroxypropan-2-yl)phenyl)pyrazin-2-yl)cyclobutyl)(3-hydroxyazetidin-1-yl)methanone] | –
≤ 500 | – | ≤ 100 | Cc1ccc(C(O)(CO)C(F)(F)F)cc1-c1cnc(N)c(C(F)(F)F)n1 (single isomer, unassigned) [Example 25, 2-(3-(5-Amino-6-(trifluoromethyl)pyrazin-2-yl)-4-methylphenyl)-3,3,3-trifluoropropane-1,2-diol] | –
≤ 100 | < 100 | ≤ 100 | [2H]C([2H])([2H])c1ccc(C(O)(CO)C(F)(F)F)cc1-c1cnc(N)c(C(=O)NC2CC(C#N)C2)n1 (single isomer, unassigned) [Example 26] | –
≤ 100 | – | ≤ 100 | Cc1ccc(C(O)(CO)C(F)(F)F)cc1-c1cnc(N)c(C(=O)NC23CC(CO)(C2)C3)n1 (single isomer, unassigned) [Example 32] | –
≤ 100 | – | ≤ 100 | Cc1ccc(C(O)(CO)C(F)(F)F)cc1-c1cnc(N)c(C(=O)N[C@@H](C)CO)n1 (single isomer, unassigned) [Example 33] | –
≤ 100 | – | ≤ 100 | Cc1ccc(C(O)(CO)C(F)(F)F)cc1-c1cnc(N)c(C(=O)NCC(C)(C)C#N)n1 (single isomer, unassigned) [Example 34] | –
≤ 100 | – | ≤ 100 | Cc1ccc(C(O)(CO)C(F)(F)F)cc1-c1cnc(N)c(C(=O)NC23CCC(O)(CC2)C3)n1 (single isomer, unassigned) [Example 35] | –
≤ 100 | – | ≤ 100 | Cc1ccc(C(O)(CO)C(F)(F)F)cc1-c1cnc(N)c(C(=O)N[C@H](C)CO)n1 (single isomer, unassigned) [Example 36] | –
– | – | – | Cc1ccc([C@](O)(CO)C(F)F)cc1-c1cnc(N)c(C(=O)NC(C)C)n1 (single isomer, unassigned) [Example 46] | < 100
≤ 500 | – | ≤ 100 | [2H]C([2H])([2H])c1ccc(C(O)(C(O)C(F)(F)F)C(F)(F)F)cc1-c1cnc(N)c(-c2c[nH]nc2C)n1 (centres unmarked) [Example 20, 2-(3-(5-Amino-6-(3-methyl-1H-pyrazol-4-yl)pyrazin-2-yl)-4-(methyl-d3)phenyl)-1,1,1,4,4,4-hexafluorobutane-2,3-diol] | –

SMILES | IC50 [1] [nM] | IC50 [2, 4] [nM] | IC50 [3] [nM] | IC50 ([2]; THP-1, read-out: PI3Kγ_THP1_RPS6_ELISA IC50 (nM)) [nM]
[2H]C([2H])([2H])c1ccc(C(O)(CO)C(F)F)cc1-c1cnc(N)c(C(=O)NC23CCC(O)(CC2)C3)n1 (single isomer, unassigned) [Example 18, 3-Amino-6-(5-(1,1-difluoro-2,3-dihydroxypropan-2-yl)-2-(methyl-d3)phenyl)-N-(4-hydroxybicyclo[2.2.1]heptan-1-yl)pyrazine-2-carboxamide] | ≤ 100 | < 100 | ≤ 100 | –
